Laboratory results from patent publication US9616028B2, “Bilayer tablet formulations” (AstraZeneca AB, priority 2009, dated 2017).

System: patients with inadequately controlled type 2 diabetes
Method: The data represent findings from a randomized, double-blind, placebo-controlled study of 546 individuals with type 2 diabetes whose HbA1c was greater than or equal to 7.0 percent and less than or equal to 10 percent at baseline. […] Patients in all arms also received metformin (greater than or equal to 1500 mg/d). […] Exploratory endpoints included body weight decrease of greater than or equal to 5 percent or greater than or equal to 10 percent as well as body weight percent change from baseline.

CCOc1ccc(Cc2cc([C@@H]3O[C@H](CO)[C@@H](O)[C@H](O)[C@H]3O)ccc2Cl)cc1 [dapagliflozin, (2S,3R,4R,5S,6R)-2-(4-chloro-3-(4-ethoxybenzyl)phenyl)-6-(hydroxymethyl)tetrahydro-2H-pyran-3,4,5-triol]
mean reductions in body weight compared to individuals taking placebo (add-on to metformin, 24 weeks): statistically greater | adjusted mean change in FPG from baseline at Week 24 (dapagliflozin 10 mg plus metformin): -23.5 mg/dL | patients who achieved weight losses greater than or equal to 5 percent compared to placebo (exploratory endpoint, add-on to metformin, 24 weeks): more patients
